Experimental data reported in PubChem BioAssay (NCI).
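96-well plates; 48 h exposure; 5 concentrations. Endpoints by linear interpolation between flanking doses. Not reached: highest tested concentration assigned. At the TGI there is no net growth.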

Legend:
Test in all cases: inhibition of tumour cell growth, NCI panel, 48 h
[1] = tested on: K-562 leukemia
[2] = tested on: 786-0 renal
[3] = tested on: OVCAR-8 ovarian
[4] = tested on: SF-539 CNS
[5] = tested on: LXFL 529 NSCLC
[6] = tested on: OVCAR-3 ovarian
[7] = tested on: SK-MEL-5 melanoma
[8] = tested on: DMS 273 small cell lung
[9] = tested on: HCC-2998 colon
[10] = tested on: SNB-75 CNS
[11] = tested on: ACHN renal
[12] = tested on: NCI-H522 lung
[13] = tested on: RPMI-8226 leukemia
[14] = tested on: HCT-15 colon
[15] = tested on: CCRF-CEM leukemia
[16] = tested on: NCI-H226 lung
[17] = tested on: HOP-92 NSCLC
[18] = tested on: NCI-H460 lung
[19] = tested on: U251 CNS
[20] = tested on: HCT-116 colon
[21] = tested on: COLO 205 colon
[22] = tested on: CAKI-1 renal
[23] = tested on: SK-MEL-2 melanoma
[24] = tested on: MALME-3M melanoma
[25] = tested on: SK-OV-3 ovarian
[26] = tested on: MOLT-4 leukemia
[27] = tested on: UACC-257 melanoma
[28] = tested on: HT29 colon
[29] = tested on: DLD-1 colon
[30] = tested on: OVCAR-5 ovarian
[31] = tested on: KM12 colon
[32] = tested on: TK-10 renal
[33] = tested on: UACC-62 melanoma
[34] = tested on: SK-MEL-28 melanoma
[35] = tested on: A549 NSCLC
[36] = tested on: SR leukemia
[37] = tested on: OVCAR-4 ovarian
[38] = tested on: SW-620 colon
[39] = tested on: UO-31 renal
[40] = tested on: M14 melanoma
[41] = tested on: SNB-19 CNS
[42] = tested on: NCI-H23 lung
[43] = tested on: IGROV1 ovarian
[44] = tested on: SNB-78 CNS
[45] = tested on: A498 renal
[46] = tested on: SF-295 CNS
[47] = tested on: HOP-62 NSCLC
[48] = tested on: SF-268 CNS
[49] = tested on: SN12C renal
[50] = tested on: HOP-18 NSCLC
[51] = tested on: M19-MEL melanoma
[52] = tested on: EKVX NSCLC
[53] = tested on: XF 498 CNS
[54] = tested on: LOX IMVI melanoma
[55] = tested on: KM20L2 colon
[56] = tested on: DMS 114 small cell lung
[57] = tested on: HL-60(TB) leukemia
[58] = tested on: RXF-631 renal
[59] = tested on: RXF 393 renal

NC1=NC(Cn2nc(-c3ccccc3)c3ccccc3c2=O)=NNC(=O)N1
TGI [1]: > 100 µM
TGI [2]: > 100 µM
TGI [3]: > 100 µM
TGI [4]: > 100 µM
TGI [5]: > 100 µM
TGI [6]: > 100 µM
TGI [7]: > 100 µM
TGI [8]: > 100 µM
TGI [9]: > 100 µM
TGI [10]: > 100 µM
TGI [11]: > 100 µM
TGI [12]: > 100 µM
TGI [13]: > 100 µM
TGI [14]: > 100 µM
TGI [15]: > 100 µM
TGI [16]: > 100 µM
TGI [17]: > 100 µM
TGI [18]: > 100 µM
TGI [19]: > 100 µM
TGI [20]: > 100 µM
TGI [21]: > 100 µM
TGI [22]: > 100 µM
TGI [23]: > 100 µM
TGI [24]: > 100 µM
TGI [25]: > 100 µM
TGI [26]: > 100 µM
TGI [27]: > 100 µM
TGI [28]: > 100 µM
TGI [29]: > 100 µM
TGI [30]: > 100 µM
TGI [31]: > 100 µM
TGI [32]: > 100 µM
TGI [33]: > 100 µM
TGI [34]: > 100 µM
TGI [35]: > 100 µM
TGI [36]: > 100 µM
TGI [37]: > 100 µM
TGI [38]: > 100 µM
TGI [39]: > 100 µM
TGI [40]: > 100 µM
TGI [41]: > 100 µM
TGI [42]: > 100 µM
TGI [43]: > 100 µM
TGI [44]: > 100 µM
TGI [45]: > 100 µM
TGI [46]: > 100 µM
TGI [47]: > 100 µM
TGI [48]: > 100 µM
TGI [49]: > 100 µM
TGI [50]: > 100 µM
TGI [51]: > 100 µM

O=C(c1ccc(Cl)cc1)C1OC12C(=O)Nc1c(Cl)cc(Cl)cc12 (stereo unspecified)
TGI [1]: > 100 µM
TGI [2]: > 100 µM
TGI [52]: 65.2 µM
TGI [3]: > 100 µM
TGI [4]: > 100 µM
TGI [6]: 77.8 µM
TGI [7]: > 100 µM
TGI [8]: > 100 µM
TGI [9]: > 100 µM
TGI [10]: 83.4 µM
TGI [11]: > 100 µM
TGI [13]: 45.4 µM
TGI [14]: > 100 µM
TGI [15]: 66.3 µM
TGI [16]: > 100 µM
TGI [18]: > 100 µM
TGI [19]: > 100 µM
TGI [23]: > 100 µM
TGI [24]: > 100 µM
TGI [27]: > 100 µM
TGI [28]: > 100 µM
TGI [29]: > 100 µM
TGI [30]: > 100 µM
TGI [53]: 87.8 µM
TGI [31]: > 100 µM
TGI [32]: > 100 µM
TGI [34]: > 100 µM
TGI [54]: > 100 µM
TGI [35]: > 100 µM
TGI [38]: > 100 µM
TGI [39]: > 100 µM
TGI [41]: > 100 µM
TGI [42]: > 100 µM
TGI [55]: > 100 µM
TGI [45]: > 100 µM
TGI [46]: > 100 µM
TGI [47]: > 100 µM
TGI [48]: > 100 µM
TGI [49]: > 100 µM
TGI [50]: > 100 µM

CCCCCCCCOCC(COC(=O)CCCCCCC)OC(=O)CCCCCCC (stereo unspecified)
TGI [1]: > 100 µM
TGI [2]: > 100 µM
TGI [3]: > 100 µM
TGI [5]: > 100 µM
TGI [6]: > 100 µM
TGI [7]: > 100 µM
TGI [8]: > 100 µM
TGI [9]: > 100 µM
TGI [11]: > 100 µM
TGI [13]: > 100 µM
TGI [14]: > 100 µM
TGI [15]: > 100 µM
TGI [16]: > 100 µM
TGI [17]: > 100 µM
TGI [56]: > 100 µM
TGI [18]: > 100 µM
TGI [19]: > 100 µM
TGI [57]: > 100 µM
TGI [20]: > 100 µM
TGI [21]: > 100 µM
TGI [22]: > 100 µM
TGI [24]: > 100 µM
TGI [25]: > 100 µM
TGI [26]: > 100 µM
TGI [27]: > 100 µM
TGI [28]: > 100 µM
TGI [29]: > 100 µM
TGI [30]: > 100 µM
TGI [32]: > 100 µM
TGI [33]: > 100 µM
TGI [34]: > 100 µM
TGI [54]: > 100 µM
TGI [35]: > 100 µM
TGI [36]: > 100 µM
TGI [37]: > 100 µM
TGI [38]: > 100 µM
TGI [39]: > 100 µM
TGI [40]: > 100 µM
TGI [41]: > 100 µM
TGI [42]: > 100 µM
TGI [58]: > 100 µM
TGI [43]: > 100 µM
TGI [55]: > 100 µM
TGI [45]: > 100 µM
TGI [46]: > 100 µM
TGI [47]: > 100 µM
TGI [48]: > 100 µM
TGI [49]: > 100 µM
TGI [50]: > 100 µM
TGI [51]: > 100 µM

COC(=O)C1=C(C(=O)OC)C2(c3ccccc3)OC1(c1ccccc1)c1cc3ccccc3cc12
TGI [1]: 6.06 µM
TGI [2]: 2.7 µM
TGI [52]: 3.33 µM
TGI [3]: 2.96 µM
TGI [4]: 3.03 µM
TGI [5]: 2.63 µM
TGI [6]: 2.68 µM
TGI [7]: 3.69 µM
TGI [8]: 3.7 µM
TGI [9]: 3.7 µM
TGI [10]: 1.99 µM
TGI [11]: 3.07 µM
TGI [13]: 4.19 µM
TGI [14]: 3.88 µM
TGI [15]: 4.55 µM
TGI [17]: 2.44 µM
TGI [18]: 11.9 µM
TGI [19]: 18.8 µM
TGI [57]: 1.84 µM
TGI [21]: 4.18 µM
TGI [22]: 2.83 µM
TGI [23]: 3.13 µM
TGI [24]: 3.19 µM
TGI [25]: 24.4 µM
TGI [26]: 3.64 µM
TGI [28]: 3.49 µM
TGI [29]: 3.46 µM
TGI [30]: 3.53 µM
TGI [31]: 3.97 µM
TGI [32]: 3.56 µM
TGI [59]: 2.57 µM
TGI [33]: 4.26 µM
TGI [34]: 3.82 µM
TGI [54]: 2.71 µM
TGI [35]: 5.32 µM
TGI [37]: 3.5 µM
TGI [38]: 3.51 µM
TGI [39]: 2.77 µM
TGI [40]: 3.33 µM
TGI [41]: 15.5 µM
TGI [42]: 4.48 µM
TGI [58]: 4.69 µM
TGI [43]: 3.78 µM
TGI [55]: 3.76 µM
TGI [46]: 19.8 µM
TGI [47]: 27.1 µM
TGI [48]: 3.77 µM
TGI [49]: 4.18 µM
TGI [50]: 2.45 µM
TGI [51]: 4.22 µM
